Assay results as given in patent US4684664A, “Derivatives of β-(4-isocyano-1,2,3,4-diepoxycyclopentyl) acrylic acid” (Kureha Kagaku Kogyo Kabushiki Kaisha, priority 1984, dated 1987).
Like-named read-outs stand apart in the source and are kept apart here.

What was measured:
Type in all cases: cell-based
[1] = test system: Enterobacter aerogenes ATCC 13048; assay: Antibacterial activity, agar-dilution MIC, organism No. 23; conditions: Klebsiella aerogenes
Procedure, shortened: (§1)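 Endpoint: MIC in μg/ml of culture medium. Method: agar dilution. Medium: bouillon agar.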

[2] = test system: Salmonella enteritidis G 14; assay: Antibacterial activity, agar-dilution MIC, organism No. 12; conditions: Salmonella enterica, ENTERITIDIS, read-out: Minimum Inhibitory Concentration
Procedure, shortened: as §1

[3] = test system: Aspergillus niger IFO 6342; assay: Antifungal activity, agar-dilution MIC, organism No. 30; conditions: Aspergillus niger
Procedure, shortened: as §1

[4] = test system: Enterobacter cloacae 963; assay: Antibacterial activity, agar-dilution MIC, organism No. 24
Procedure, shortened: as §1

[5] = test system: Proteus morganii IFO 3848; assay: Antibacterial activity, agar-dilution MIC, organism No. 18; conditions: Morganella morganii
Procedure, shortened: as §1

[6] = test system: Serratia marcescens IAM 1184; assay: Antibacterial activity, agar-dilution MIC, organism No. 13; conditions: Serratia marcescens
Description: Agar-dilution method was used for determination of the antibacterial activity and antifungal activity while using bouillon-agar culture medium, and the minimum inhibitory concentration of the specimen was expressed by μg/ml of the culture medium.

[7] = test system: Salmonella shottmuelleri 8006; assay: Antibacterial activity, agar-dilution MIC, organism No. 11
Procedure, shortened: as §1

[8] = test system: Salmonella paratyphi-A 1015; assay: Antibacterial activity, agar-dilution MIC, organism No. 10; conditions: Salmonella enterica, PARATYPHI, read-out: Minimum Inhibitory Concentration
Procedure, shortened: as §1

[9] = test system: Salmonella typhi 901; assay: Antibacterial activity, agar-dilution MIC, organism No. 9; conditions: Salmonella enterica, TYPHI, read-out: Minimum Inhibitory Concentration
Procedure, shortened: as §1

[10] = test system: Bacillus subtilis ATCC 6633; assay: Antibacterial activity, agar-dilution MIC, organism No. 14; conditions: Bacillus subtilis
Procedure, shortened: as §1

[11] = test system: Escherichia coli K12 C600 IAM 1264; assay: Antibacterial activity, agar-dilution MIC, organism No. 6; conditions: Escherichia coli
Procedure, shortened: as §1

[12] = test system: Escherichia coli NIHJ-JC-2; assay: Antibacterial activity, agar-dilution MIC, organism No. 5; conditions: Escherichia coli
Procedure, shortened: as §1

[13] = test system: Pseudomonas aeruginosa PAO 1; assay: Antibacterial activity, agar-dilution MIC, organism No. 17; conditions: Pseudomonas aeruginosa
Procedure, shortened: as §1

[14] = test system: Pseudomonas aeruginosa IFO 3445; assay: Antibacterial activity, agar-dilution MIC, organism No. 15; conditions: Pseudomonas aeruginosa
Procedure, shortened: as §1

[15] = test system: Proteus mirabilis IFO 3849; assay: Antibacterial activity, agar-dilution MIC, organism No. 19; conditions: Proteus mirabilis
Procedure, shortened: as §1

[16] = test system: Proteus rettgeri IFO 3850; assay: Antibacterial activity, agar-dilution MIC, organism No. 22; conditions: Providencia rettgeri
Procedure, shortened: as §1

[17] = test system: Staphylococcus aureus FDA 209PJc-1; assay: Antibacterial activity, agar-dilution MIC, organism No. 1; conditions: Staphylococcus aureus
Procedure, shortened: as §1

[18] = test system: Salmonella typhimurium IID 971; assay: Antibacterial activity, agar-dilution MIC, organism No. 8; conditions: Salmonella enterica, read-out: Minimum Inhibitory Concentration
Procedure, shortened: as §1

[19] = test system: Candida albicans IAM 4905; assay: Antifungal activity, agar-dilution MIC, organism No. 29; conditions: Candida albicans
Procedure, shortened: as §1

[20] = test system: Klebsiella pneumoniae PCI-602; assay: Antibacterial activity, agar-dilution MIC, organism No. 7; conditions: Klebsiella pneumoniae
Procedure, shortened: as §1

[21] = test system: Staphylococcus aureus MS 353; assay: Antibacterial activity, agar-dilution MIC, organism No. 3; conditions: Staphylococcus aureus
Procedure, shortened: as §1

[22] = test system: Micrococcus luteus ATCC 9341; assay: Antibacterial activity, agar-dilution MIC, organism No. 25; conditions: Micrococcus luteus
Procedure, shortened: as §1

[23] = test system: Streptococcus pyogenes Cook; assay: Antibacterial activity, agar-dilution MIC, organism No. 4; conditions: Streptococcus pyogenes, read-out: Minimum Inhibitory Concentration
Procedure, shortened: as §1

[24] = test system: Staphylococcus aureus Terajima; assay: Antibacterial activity, agar-dilution MIC, organism No. 2; conditions: Staphylococcus aureus, read-out: Minimum Inhibitory Concentration
Procedure, shortened: as §1

[25] = test system: Proteus vulgaris OX-19; assay: Antibacterial activity, agar-dilution MIC, organism No. 20; conditions: Proteus vulgaris
Procedure, shortened: as §1

[26] = test system: Pseudomonas aeruginosa NCTC 10490; assay: Antibacterial activity, agar-dilution MIC, organism No. 16; conditions: Pseudomonas aeruginosa
Procedure, shortened: as §1

[27] = test system: Proteus vulgaris HX-19; assay: Antibacterial activity, agar-dilution MIC, organism No. 21; conditions: Proteus vulgaris
Procedure, shortened: as §1

[28] = test system: Streptococcus pyogenes IFO 3340; assay: Antibacterial activity, agar-dilution MIC, organism No. 26; conditions: Streptococcus pyogenes, IFO3340; Organism No. 26, bouillon-agar; read-out: Minimum Inhibitory Concentration
Procedure, shortened: as §1

[29] = ATCC13048, Organism No. 23, bouillon-agar, read-out: Minimum Inhibitory Concentration
[30] = IFO6342, Organism No. 30, bouillon-agar, read-out: Minimum Inhibitory Concentration
[31] = Enterobacter cloacae, 963, Organism No. 24, bouillon-agar, read-out: Minimum Inhibitory Concentration
[32] = IFO3848, Organism No. 18, bouillon-agar, read-out: Minimum Inhibitory Concentration
[33] = IAM1184, Organism No. 13, bouillon-agar, read-out: Minimum Inhibitory Concentration
[34] = Salmonella, 8006, Organism No. 11, bouillon-agar, read-out: Minimum Inhibitory Concentration
[35] = ATCC6633, Organism No. 14, bouillon-agar, read-out: Minimum Inhibitory Concentration
[36] = IAM1264, Organism No. 6, bouillon-agar, read-out: Minimum Inhibitory Concentration
[37] = NIHJJC2, Organism No. 5, bouillon-agar, read-out: Minimum Inhibitory Concentration
[38] = PAO1, Organism No. 17, bouillon-agar, read-out: Minimum Inhibitory Concentration
[39] = IFO3445, Organism No. 15, bouillon-agar, read-out: Minimum Inhibitory Concentration
[40] = IFO3849, Organism No. 19, bouillon-agar, read-out: Minimum Inhibitory Concentration
[41] = IFO3850, Organism No. 22, bouillon-agar, read-out: Minimum Inhibitory Concentration
[42] = FDA209PJC1, Organism No. 1, bouillon-agar, read-out: Minimum Inhibitory Concentration
[43] = IAM4905, Organism No. 29, bouillon-agar, read-out: Minimum Inhibitory Concentration
[44] = PCI602, Organism No. 7, bouillon-agar, read-out: Minimum Inhibitory Concentration
[45] = MS353, Organism No. 3, bouillon-agar, read-out: Minimum Inhibitory Concentration
[46] = ATCC9341, Organism No. 25, bouillon-agar, read-out: Minimum Inhibitory Concentration
[47] = OX19, Organism No. 20, bouillon-agar, read-out: Minimum Inhibitory Concentration
[48] = NCTC10490, Organism No. 16, bouillon-agar, read-out: Minimum Inhibitory Concentration
[49] = HX19, Organism No. 21, bouillon-agar, read-out: Minimum Inhibitory Concentration

Measured: MIC

[C-]#[N+]C12CC3(/C=C/C(=O)Nc4ccncc4)OC3C1O2 (centres unmarked) [compound 72]
> 200 µg/mL: [1]; ATCC13048, read-out: Minimum Inhibitory Concentration | [13]; PAO1, read-out: Minimum Inhibitory Concentration | [14]; IFO3445, read-out: Minimum Inhibitory Concentration | [15]; IFO3849, read-out: Minimum Inhibitory Concentration | [26]; NCTC10490, read-out: Minimum Inhibitory Concentration
200 µg/mL: [4]; Enterobacter cloacae, 963, read-out: Minimum Inhibitory Concentration | [16]; IFO3850, read-out: Minimum Inhibitory Concentration
12.5 µg/mL: [2] | [9] | [10]; ATCC6633, read-out: Minimum Inhibitory Concentration | [23]
25 µg/mL: [18]
3.13 µg/mL: [8] | [20]; PCI602, read-out: Minimum Inhibitory Concentration | [21]; MS353, read-out: Minimum Inhibitory Concentration
1.56 µg/mL: [17]; FDA209PJC1, read-out: Minimum Inhibitory Concentration
50 µg/mL: [11]; IAM1264, read-out: Minimum Inhibitory Concentration | [12]; NIHJJC2, read-out: Minimum Inhibitory Concentration | [22]; ATCC9341, read-out: Minimum Inhibitory Concentration
6.25 µg/mL: [3]; IFO6342, read-out: Minimum Inhibitory Concentration | [5]; IFO3848, read-out: Minimum Inhibitory Concentration | [7]; Salmonella, 8006, read-out: Minimum Inhibitory Concentration | [19]; IAM4905, read-out: Minimum Inhibitory Concentration | [24] | [25]; OX19, read-out: Minimum Inhibitory Concentration | [27]; HX19, read-out: Minimum Inhibitory Concentration
100 µg/mL: [6]; IAM1184, read-out: Minimum Inhibitory Concentration

[C-]#[N+]C12CC3(/C=C/C(=O)Nc4ccc(OCCC)cc4)OC3C1O2 (centres unmarked) [compound 73]
0.39 µg/mL: [8]
1.56 µg/mL: [7]; [34] | [28] | [20]; [44] | [21]; [45] | [22]; [46] | [24]; Organism No. 2, bouillon-agar | [25]; [47]
50 µg/mL: [9]
0.78 µg/mL: [17]; [42] | [27]; [49]
100 µg/mL: [23]; Organism No. 4, bouillon-agar
> 200 µg/mL: [1]; [29] | [2]; Organism No. 12, bouillon-agar | [4]; [31] | [6]; [33] | [11]; [36] | [12]; [37] | [13]; [38] | [14]; [39] | [15]; [40] | [16]; [41] | [18]; Organism No. 8, bouillon-agar | [26]; [48]
12.5 µg/mL: [3]; [30] | [5]; [32] | [10]; [35] | [19]; [43]

[C-]#[N+]C12CC3(/C=C/C(=O)Nc4ccc(OC(C)C)cc4)OC3C1O2 (centres unmarked) [compound 74]
100 µg/mL: [16]; [41] | [23]; Organism No. 4, bouillon-agar
12.5 µg/mL: [3]; [30] | [9] | [19]; [43] | [22]; [46]
200 µg/mL: [2]; Organism No. 12, bouillon-agar
1.56 µg/mL: [8] | [20]; [44] | [21]; [45] | [25]; [47] | [27]; [49]
0.78 µg/mL: [17]; [42]
6.25 µg/mL: [5]; [32] | [10]; [35] | [24]; Organism No. 2, bouillon-agar
3.13 µg/mL: [7]; [34] | [28]
> 200 µg/mL: [1]; [29] | [4]; [31] | [6]; [33] | [11]; [36] | [12]; [37] | [13]; [38] | [14]; [39] | [15]; [40] | [18]; Organism No. 8, bouillon-agar | [26]; [48]
